“And” between values parts separate entries of the source, which are not always exact repeats. Equal entries are not always repeated. Toxic doses and inconclusive results are not listed. Where a SMILES comes first, the peptide text is derived from it. [ ]: non-standard residue; d: D form. The star is where a group is joined. Tyr(3,5-I2) = N[CH](Cc1cc(I)c(O)c(I)c1)C(=O)O; Cbz = O=C(OCc1ccccc1)*
System: B6C3F1 mice, B16 melanoma ip, median survival T/C
Assay: NCI In Vivo Anticancer Drug Screen. Data for tumor model B16 Melanoma (intraperitoneal) in B6C3F1 mice
Conditions: endpoint: median survival time, higher = longer survival
Summary of the method: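 Mice bearing transplanted tumor were dosed with compound or vehicle, and survival was recorded. Activity is expressed as the treated-group measurement (T) divided by the vehicle control measurement (C).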

[1] = dose: 12.5 mg/kg/injection, schedule: Q01DX009 (ip), vehicle: saline with Tween-80
[2] = dose: 25.0 mg/kg/injection, schedule: Q01DX009 (ip), vehicle: saline with Tween-80
[3] = dose: 50.0 mg/kg/injection, schedule: Q01DX009 (ip), vehicle: saline with Tween-80
[4] = dose: 100.0 mg/kg/injection, schedule: Q01DX009 (ip), vehicle: saline with Tween-80
[5] = dose: 200.0 mg/kg/injection, schedule: Q01DX009 (ip), vehicle: saline with Tween-80
[6] = dose: 400.0 mg/kg/injection, schedule: Q01DX009 (ip), vehicle: saline with Tween-80
[7] = dose: 400.0 mg/kg/injection, schedule: Q01DX009 (ip), vehicle: Klucel (hydroxypropylcellulose) (HPC)
[8] = dose: 25.0 mg/kg/injection, schedule: Q01DX009 (ip), vehicle: Klucel (hydroxypropylcellulose) (HPC)
[9] = dose: 12.5 mg/kg/injection, schedule: Q01DX009 (ip), vehicle: Klucel (hydroxypropylcellulose) (HPC)

In the case of `CC(=O)Nc1ccc(O)c(O)c1`, the T/C [1] was 109 % of control and 112 % of control, the T/C [2] was 114 % of control and 117 % of control and the T/C [3] was 104 % of control and 105 % of control. The T/C [4] was 113 % of control and 101 % of control, the T/C [5] was 113 % of control and 106 % of control and the T/C [6] was 122 % of control and 106 % of control.
With `CC(=O)NC(Cc1ccccc1)C(=O)NC(Cc1cc(I)c(O)c(I)c1)C(=O)O` (stereo not given) (Ac-Phe-[Tyr(3,5-I2)]-OH; configuration not given here) the T/C [7] was 89 % of control.
`O=c1[nH]c2c(ccc3cnccc32)c2c1CCC2` was tested, and the T/C (dose: 3.12 mg/kg/injection, schedule: Q01DX009 (ip), vehicle: saline) was 97 % of control, the T/C (dose: 6.25 mg/kg/injection, schedule: Q01DX009 (ip), vehicle: saline) was 113 % of control and the T/C (dose: 12.5 mg/kg/injection, schedule: Q01DX009 (ip), vehicle: saline) was 119 % of control.
For `N=C(N)c1ccc(/C=C/c2ccc(C(=N)N)cc2)cc1`, the T/C (dose: 16.0 mg/kg/injection, schedule: Q01DX009 (ip), vehicle: Klucel (hydroxypropylcellulose) (HPC)) was 101 % of control, the T/C (dose: 32.0 mg/kg/injection, schedule: Q01DX009 (ip), vehicle: Klucel (hydroxypropylcellulose) (HPC)) was 116 % of control and the T/C (dose: 32.0 mg/kg/injection, schedule: Q01DX009 (ip), vehicle: saline with Tween-80) was 101 % of control. The T/C (dose: 64.0 mg/kg/injection, schedule: Q01DX009 (ip), vehicle: Klucel (hydroxypropylcellulose) (HPC)) was 97 % of control and the T/C (dose: 64.0 mg/kg/injection, schedule: Q01DX009 (ip), vehicle: saline with Tween-80) was 101 % of control.
In the case of `CC(NC(=O)OCc1ccccc1)C(=O)NC(CC(N)=O)C(=O)O` (stereo not drawn) (Cbz-Ala-Asn-OH; configuration not given here), the T/C (dose: 12.0 mg/kg/injection, schedule: Q01DX009 (ip), vehicle: Klucel (hydroxypropylcellulose) (HPC)) was 101 % of control, the T/C [8] was 101 % of control and the T/C (dose: 50.0 mg/kg/injection, schedule: Q01DX009 (ip), vehicle: Klucel (hydroxypropylcellulose) (HPC)) was 98 % of control. The T/C (dose: 100.0 mg/kg/injection, schedule: Q01DX009 (ip), vehicle: Klucel (hydroxypropylcellulose) (HPC)) was 107 % of control and the T/C [7] was 104 % of control.
`CCCCC(NC(=O)OCc1ccccc1)C(=O)NC(Cc1c[nH]c2ccccc12)C(=O)O` (stereo not given) was tested, and the T/C (dose: 200.0 mg/kg/injection, schedule: Q01DX009 (ip), vehicle: Klucel (hydroxypropylcellulose) (HPC)) was 103 % of control.
With `Cc1c2cc(Cl)c3ccccc3c2c[n+]2ccccc12` the T/C (dose: 3.12 mg/kg/injection, schedule: Q01DX009 (ip), vehicle: saline with Tween-80) was 103 % of control, the T/C (dose: 6.25 mg/kg/injection, schedule: Q01DX009 (ip), vehicle: saline with Tween-80) was 108 % of control and the T/C [1] was 112 % of control. For the same compound, the T/C [2] was 101 % of control and the T/C [3] was 108 % of control.
`O=C(O)CNC(=O)CNC(=O)C(Cc1cnc[nH]1)NC(=O)OCc1ccccc1` (stereo not given) (HELM PEPTIDE1{[O=C(OCc1ccccc1)[*:2]].[O=C(C(Cc1c[nH]cn1)N[*:1])[*:2]].G.G}$$$$V2.0) was tested, and the T/C [4] was 89 % of control, the T/C [5] was 91 % of control and the T/C [6] was 97 % of control.
`CCCCCCCCCCS(=O)CC(CO)NC(=O)/C=C/c1c(C)[nH]c(=O)[nH]c1=O` (stereo not given) was tested, and the T/C (dose: 0.37 mg/kg/injection, schedule: Q01DX009 (ip), vehicle: distilled water + Tween-80) was 106 % of control, the T/C (dose: 0.37 mg/kg/injection, schedule: Q01DX009 (ip), vehicle: water) was 106 % of control and the T/C (dose: 0.75 mg/kg/injection, schedule: Q01DX009 (ip), vehicle: distilled water + Tween-80) was 95 % of control. For the same compound, the T/C (dose: 0.75 mg/kg/injection, schedule: Q01DX009 (ip), vehicle: water) was 106 % of control, the T/C (dose: 1.5 mg/kg/injection, schedule: Q01DX009 (ip), vehicle: distilled water + Tween-80) was 94 % of control and the T/C (dose: 1.5 mg/kg/injection, schedule: Q01DX009 (ip), vehicle: water) was 108 % of control. The T/C (dose: 3.0 mg/kg/injection, schedule: Q01DX009 (ip), vehicle: distilled water + Tween-80) was 100 % of control, the T/C (dose: 3.0 mg/kg/injection, schedule: Q01DX009 (ip), vehicle: water) was 117 % of control and the T/C (dose: 6.0 mg/kg/injection, schedule: Q01DX009 (ip), vehicle: distilled water + Tween-80) was 109 % of control. For the same compound, the T/C (dose: 6.0 mg/kg/injection, schedule: Q01DX009 (ip), vehicle: water) was 114 % of control.
For `CCNC(=O)[B-][N+](C)(C)C`, the T/C [9] was 93 % of control and the T/C [8] was 95 % of control.
With `NS(=O)(=O)c1cc2c(cc1Cl)NC=NS2(=O)=O` the T/C (dose: 37.5 mg/kg/injection, schedule: Q01DX009 (ip), vehicle: Klucel (hydroxypropylcellulose) (HPC)) was 94 % of control, the T/C (dose: 75.0 mg/kg/injection, schedule: Q01DX009 (ip), vehicle: Klucel (hydroxypropylcellulose) (HPC)) was 90 % of control and the T/C (dose: 150.0 mg/kg/injection, schedule: Q01DX009 (ip), vehicle: Klucel (hydroxypropylcellulose) (HPC)) was 95 % of control. The T/C (dose: 300.0 mg/kg/injection, schedule: Q01DX009 (ip), vehicle: Klucel (hydroxypropylcellulose) (HPC)) was 88 % of control.
For `NC1=NCN(C2OC(CO)C(O)C2O)C(=O)N1` (stereo not given), the T/C (dose: 50.0 mg/kg/injection, schedule: Q01DX009 (ip), vehicle: saline) was 108 % of control and the T/C (dose: 100.0 mg/kg/injection, schedule: Q01DX009 (ip), vehicle: saline) was 105 % of control.
`O=C(Nc1ccc(N=C=S)cc1Cl)c1cc(Cl)cc(Cl)c1O` was tested, and the T/C (dose: 6.25 mg/kg/injection, schedule: Q01DX009 (ip), vehicle: Klucel (hydroxypropylcellulose) (HPC)) was 107 % of control, the T/C [9] was 98 % of control and the T/C [8] was 116 % of control.
For `COc1cc2c(cc1O)C1C(O)C(O)C=C3CCN(C2)C31` (stereo not given), the T/C (dose: 4.0 mg/kg/injection, schedule: Q01DX009 (ip), vehicle: saline + alcohol) was 114 % of control, the T/C (dose: 8.0 mg/kg/injection, schedule: Q01DX009 (ip), vehicle: saline + alcohol) was 100 % of control and the T/C (dose: 16.0 mg/kg/injection, schedule: Q01DX009 (ip), vehicle: saline + alcohol) was 105 % of control. The T/C (dose: 32.0 mg/kg/injection, schedule: Q01DX009 (ip), vehicle: saline + alcohol) was 102 % of control.
With `O=C1NC(=O)C2(CCc3ccc(N(CCCl)CCCl)cc32)N1` (stereo not given) the T/C (dose: 1.5 mg/kg/injection, schedule: Q01DX009 (ip), vehicle: saline with Tween-80) was 122 % of control, the T/C (dose: 6.25 mg/kg/injection, schedule: Q01DX009 (oral), vehicle: saline with Tween-80) was 100 % of control and the T/C (dose: 12.0 mg/kg/injection, schedule: Q01DX009 (ip), vehicle: saline with Tween-80) was 157 % of control. The T/C (dose: 12.5 mg/kg/injection, schedule: Q01DX009 (oral), vehicle: saline with Tween-80) was 115 % of control and 108 % of control, the T/C (dose: 24.0 mg/kg/injection, schedule: Q01DX009 (ip), vehicle: saline with Tween-80) was 202 % of control and the T/C (dose: 25.0 mg/kg/injection, schedule: Q01DX009 (oral), vehicle: saline with Tween-80) was 109 % of control and 105 % of control. For the same compound, the T/C (dose: 48.0 mg/kg/injection, schedule: Q01DX009 (ip), vehicle: saline with Tween-80) was 236 % of control, the T/C (dose: 50.0 mg/kg/injection, schedule: Q01DX009 (oral), vehicle: saline with Tween-80) was 121 % of control and 104 % of control and the T/C (dose: 100.0 mg/kg/injection, schedule: Q01DX009 (oral), vehicle: saline with Tween-80) was 109 % of control and 117 % of control. For the same compound, the T/C (dose: 200.0 mg/kg/injection, schedule: Q01DX009 (oral), vehicle: saline with Tween-80) was 117 % of control and 101 % of control and the T/C (dose: 400.0 mg/kg/injection, schedule: Q01DX009 (oral), vehicle: saline with Tween-80) was 109 % of control.

From PubChem BioAssay AID200 (DTP/NCI, 2004)
